Source: PMC7600679, “Benzoxazole-Based Metal Complexes to Reverse Multidrug Resistance in Bacteria” (Antibiotics, 2020)
Converted amounts (≈) assume the structure as drawn. Read-outs that look alike come from different tables or passages of the source.

Experiments:
E. coli AG100 A [1] = test: Minimum inhibitory concentration (broth microdilution, CLSI); format: cell-based, Escherichia coli; conditions: 18 h
In short: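 Strain: E. coli K-12 AG100 A, the AcrAB-TolC-deleted mutant of AG100. MICs determined per CLSI broth microdilution in MHB, with compounds serially diluted and a 10^−4 dilution of overnight culture added.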

[2] = test system: Enterobacter cloacae 31298; test: as above; format: cell-based; conditions: E. cloacae 31298
In short: (§1)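 CLSI broth microdilution in MHB: serially diluted compounds received a 10^−4 dilution of overnight culture. E. cloacae 31298 is a clinical wound isolate that produces AHL. C. violaceum 026 is the QS sensor strain.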

[3] = test system: Chromobacterium violaceum 026; test: as above; format: cell-based; conditions: C. violaceum 026
In short: as §1

S. aureus MRSA 272123 = test: Resistance modulation (MIC reduction) assay with CIP and TET; format: cell-based, Staphylococcus aureus; conditions: for Reduction of the MIC value of CIP: compound at a quarter of the MIC; for CIP MIC in combination with compounds: compound at ¼ MIC, value is the MIC of ciprofloxacin
Description: (§2) The resistance modulation effects of compounds with ciprofloxacin (CIP) and tetracycline (TET) antibiotics were evaluated by the MIC reduction method on the Gram-negative E. coli AG100, AG100 A, and the Gram-positive S. aureus ATCC and MRSA strains.
(§3) The chemosensitizing activity of benzoxazole-type ligands and their metal complexes was determined based on the MIC values of the antibiotics in the presence of sub-inhibitory concentrations of the compounds (¼ MIC) in both Gram-negative and Gram-positive strains. The MICs were determined in strains by the two-fold broth microdilution method in 96-well plates, using serial dilutions of TET and CIP. The first four rows contained two-fold dilutions of antibiotics, and combinations of the TET and CIP and tested compounds were transferred into the last four rows. The 10^−4 dilution of an overnight bacterial culture in 50 μL of MHB was then measured to each well, except for the medium control wells. The plates were kept at 37 °C for 18 h. MIC values of antibiotics and their combination with tested compounds were detected by visual inspection.

E. coli AG100 [4] = test: Real-time ethidium bromide accumulation (efflux pump inhibition, AcrAB-TolC); format: cell-based, Escherichia coli; conditions: compounds at ¼ MIC, EB 1 μg/mL, minute 30
S. aureus ATCC 25923 = test: Real-time ethidium bromide accumulation (efflux pump inhibition); format: cell-based, Staphylococcus aureus; conditions: compounds at ¼ MIC, EB 1 μg/mL, minute 30
S. aureus 272123 (MRSA) [5] = test: as above; format: cell-based, Staphylococcus aureus; conditions: compounds at ¼ MIC (3 at 12.5 µM), VER at 25 µM, EB 1 μg/mL, minute 30
E. coli AG100 [6] = test: Minimum inhibitory concentration (broth microdilution, CLSI); format: cell-based, Escherichia coli; conditions: E. coli AG100, 18 h, visual inspection, read-out: MIC
[7] = test system: Staphylococcus aureus ATCC 25923; test: as above; format: cell-based; conditions: S. aureus ATCC 25923, 18 h, visual inspection
In short: (§4)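 MICs were determined by broth microdilution in MHB per CLSI guidelines. Wells were inoculated with a 10^−4 dilution of an overnight culture. Strains were methicillin-susceptible reference ATCC 25923 and the methicillin- and ofloxacin-resistant clinical isolate 272123.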

E. coli AG100 [8] = test: Resistance modulation (MIC reduction) assay with CIP and TET; format: cell-based, Escherichia coli; conditions: compound at ¼ MIC, value is the MIC of ciprofloxacin
Description: as §2, §3

S. aureus 272123 (MRSA) [9] = test: Minimum inhibitory concentration (broth microdilution, CLSI); format: cell-based, Staphylococcus aureus; conditions: 18 h, visual inspection
In short: as §4

E. coli AG100 A [10] = test: Real-time ethidium bromide accumulation (efflux pump inhibition); format: cell-based, Escherichia coli; conditions: compounds at ¼ MIC, EB 1 μg/mL, minute 30
[11] = E. coli AG100 A (AcrAB-TolC deleted), visual inspection

SMILES | MIC (E. coli AG100 A [1]; Escherichia coli, AG100A) [µM] | MIC ([2]; Enterobacter cloacae) [µM] | MIC ([3]; Chromobacterium violaceum) [µM] | Reduction of the MIC value of CIP (S. aureus MRSA 272123) [fold] | CIP MIC in combination with compounds (S. aureus MRSA 272123) [µM] | Relative fluorescence index (RFI) (E. coli AG100 [4]) | Relative fluorescence index (RFI) (S. aureus ATCC 25923) | Relative fluorescence index (RFI) (S. aureus 272123 (MRSA) [5]) | MIC (E. coli AG100 [6]; Escherichia coli) [µM] | MIC ([7]; Staphylococcus aureus, ATCC25923) [µM] | CIP MIC in combination with compounds (E. coli AG100 [8]) [µM] | MIC (S. aureus 272123 (MRSA) [9]) [µM] | MIC (S. aureus 272123 (MRSA) [9]; Staphylococcus aureus) [µM] | Relative fluorescence index (RFI) (E. coli AG100 A [10]) | MIC (E. coli AG100 A [1]; [11]) [µM] | MIC [2] [µM] | MIC [3] [µM] | MIC (E. coli AG100 [6]) [µM] | MIC [7] [µM]
O=C(Cc1nc2ccccc2o1)C(F)F [Compound 3] | 25 (≈ 5.28 µg/mL) | > 100 | > 100 | 2 | 6.25 | −0.07 | −0.01 | 0.13 | 50 (≈ 10.6 µg/mL) | 100 (≈ 21.1 µg/mL) | 0.016 | 50 (≈ 10.6 µg/mL) | 50 (≈ 10.6 µg/mL) | −0.03 |  |  |  |  | 
[O-]C(=Cc1nc2ccccc2o1)C(F)(F)Cl.[O-]C(=Cc1nc2ccccc2o1)C(F)(F)Cl.[Zn+2] [Compound 5] |  |  |  | 2 | 6.25 | 0.37 | 0.03 | −0.13 |  |  | 0.016 | 3.125 |  | −0.19 | 12.5 | >100 | >100 | 50 | 12.5
[Fe+3].[O-]C(=Cc1nc2ccccc2o1)C(F)(F)F.[O-]C(=Cc1nc2ccccc2o1)C(F)(F)F.[O-]C(=Cc1nc2ccccc2o1)C(F)(F)F [Compound 12] |  |  |  | 2 | 6.25 | 0.04 | −0.02 | −0.02 |  |  | 0.016 | 25 |  | 0.09 | 50 | >100 | >100 | >100 | 50
